Measurements from ChEMBL document CHEMBL1201862, “PubChem BioAssay data set” (2004).
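Grown in 96-well plates, cells were treated for 48 hours with each compound at five concentrations. Insufficient inhibition: endpoint recorded as highest concentration tested. GI50 marks 50% less growth.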 Calls of active or inactive are those of the source. No stated cut-off is given here; in the data, active = GI50 up to about 1.1 µM and inactive = higher.

Key:
Test in all cases: inhibition of tumour cell growth, NCI panel, 48 h
[1] = test system: ACHN
[2] = test system: COLO 205
[3] = test system: EKVX
[4] = test system: HCT-116
[5] = test system: HCT-15
[6] = test system: MCF7
[7] = test system: MDA-MB-231
[8] = test system: MOLT-4
[9] = test system: NCI-H23
[10] = test system: PC-3
[11] = test system: RPMI-8226
[12] = test system: SF-268
[13] = test system: SF-539
[14] = test system: SK-MEL-28
[15] = test system: SK-MEL-2
[16] = test system: SK-MEL-5
[17] = test system: SN12C
[18] = test system: SW-620
[19] = test system: T47D
[20] = test system: UACC-62

Row | SMILES | GI50 [1] | GI50 [2] | GI50 [3] | GI50 [4] | GI50 [5] | GI50 [6] | GI50 [7] | GI50 [8] | GI50 [9] | GI50 [10] | GI50 [11] | GI50 [12] | GI50 [13] | GI50 [14] | GI50 [15] | GI50 [16] | GI50 [17] | GI50 [18] | GI50 [19] | GI50 [20]
1 | Cc1ccc(S(=O)(=O)NNC(=O)Nc2ccc(Cl)cc2)cc1 | 6.22 µM (inactive) | > 100 µM (inactive) | > 100 µM (inactive) | > 100 µM (inactive) | > 100 µM | > 100 µM (inactive) | > 100 µM (inactive) | > 100 µM (inactive) | > 100 µM (inactive) | > 100 µM (inactive) | > 100 µM (inactive) | > 100 µM (inactive) | 54 µM (inactive) | > 100 µM (inactive) | > 100 µM (inactive) | 53 µM (inactive) | > 100 µM (inactive) | > 100 µM (inactive) | > 100 µM (inactive) | > 100 µM (inactive)
2 | CC(=O)c1c(-c2ccccc2)c(-c2ccc(OCCN(C)C)cc2)n2ccccc12 | 15.8 µM (inactive) | 14 µM (inactive) | 17.5 µM (inactive) | 13.3 µM (inactive) | 10.7 µM | 18 µM (inactive) | 16.9 µM (inactive) | 15 µM (inactive) | 18.7 µM (inactive) | 16.2 µM (inactive) | 20.8 µM (inactive) | 16.8 µM (inactive) | 13.9 µM (inactive) | 15.2 µM (inactive) | 19.1 µM (inactive) | 10.3 µM (inactive) | 16 µM (inactive) | 17.9 µM (inactive) | 16.7 µM (inactive) | 15.7 µM (inactive)
3 | COc1ccc(NC(C)=O)cc1N1C(=O)/C(=C\c2ccccc2)SC1c1cc(OC)c(OC)c(OC)c1 (stereo not given) | 39.2 µM (inactive) | 26.6 µM (inactive) | 27.2 µM (inactive) | 14.4 µM (inactive) | 21.7 µM | 28.5 µM (inactive) | 52.7 µM (inactive) | 25.6 µM (inactive) | 36.5 µM (inactive) | 29 µM (inactive) | 34 µM (inactive) | 17.7 µM (inactive) | 22.6 µM (inactive) | 80.7 µM (inactive) | 31.8 µM (inactive) | 12 µM (inactive) | 80.5 µM (inactive) | 40.4 µM (inactive) | 40.1 µM (inactive) | 30.4 µM (inactive)
4 | C=C1CC(Cn2cc(Br)c(=O)[nH]c2=O)(c2ccc(Br)cc2)OC1=O (stereo not given) | 3.66 µM (inactive) | 1.53 µM (inactive) | 17.9 µM (inactive) | 1.36 µM (inactive) | 1.83 µM | 2.61 µM (inactive) | 4.47 µM (inactive) | 1.79 µM (inactive) | 3.81 µM (inactive) | 3.56 µM (inactive) | 0.331 µM (active) | 13.6 µM (inactive) | 6.44 µM (inactive) | 7.19 µM (inactive) | 1.72 µM (inactive) | 3.01 µM (inactive) | 6.81 µM (inactive) | 1.49 µM (inactive) | 2.03 µM (inactive) | 2.4 µM (inactive)
5 | CC(=O)C(CN1CCCCC1)C(c1ccccc1)c1c(O)c2ccccc2oc1=O (stereo not given) | > 100 µM (inactive) | > 100 µM (inactive) | > 100 µM (inactive) | > 100 µM (inactive) | > 100 µM | > 100 µM (inactive) | > 100 µM (inactive) | > 100 µM (inactive) | > 100 µM (inactive) | > 100 µM (inactive) | > 100 µM (inactive) | > 100 µM (inactive) | > 100 µM (inactive) | > 100 µM (inactive) | > 100 µM (inactive) | > 100 µM (inactive) | > 100 µM (inactive) | > 100 µM (inactive) | > 100 µM (inactive) | > 100 µM (inactive)
6 | COc1ccc2c(c1)N(CCC1CCCCN1C)c1ccccc1S2 (stereo not given) [OXYRIDAZINE] | 13.8 µM (inactive) | 12.3 µM (inactive) | 19.4 µM (inactive) | 12.8 µM (inactive) | 13.4 µM | 11.4 µM (inactive) | 11 µM (inactive) | 4.85 µM (inactive) | 17.1 µM (inactive) | 10.8 µM (inactive) | 12.4 µM (inactive) | 12.4 µM (inactive) | 23.1 µM (inactive) | 3.58 µM (inactive) | 14.7 µM (inactive) | 10.8 µM (inactive) | 13.4 µM (inactive) | 14.7 µM (inactive) | 10.8 µM (inactive) | 12.6 µM (inactive)
